In ChEMBL document CHEMBL1201861, “Genomics of Drug Sensitity in Cancer screening data, Wellcome Trust Sanger Institute”:

Tests used:
Test in all cases: cells
COLO-741 = assay type: functional, cell-based, Homo sapiens; settings: Homo sapiens, COLO-741
Description: SANGER: Inhibition of human COLO-741 cell growth in a cell viability assay.

COLO-800 = assay type: functional, cell-based, Homo sapiens; settings: Homo sapiens, COLO-800;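 further: growth inhibition of COLO-800 cells, read out with a cell viability assay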
Description: SANGER: Inhibition of human COLO-800 cell growth in a cell viability assay.

CTV-1 = assay type: functional, cell-based; settings: Homo sapiens;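 further: growth inhibition of the cell line, read out with a cell viability assay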
Description: SANGER: Inhibition of human CTV-1 cell growth in a cell viability assay.

ChaGo-K-1 = assay type: functional, cell-based; settings: Homo sapiens;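 further: growth inhibition of ChaGo-K-1 cells, read out with a cell viability assay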
Description: SANGER: Inhibition of human ChaGo-K-1 cell growth in a cell viability assay.

DJM-1 = assay type: functional, cell-based, Homo sapiens; settings: Homo sapiens, DJM-1;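 further: growth inhibition of human DJM-1 cells, read out by a cell viability assay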
Description: SANGER: Inhibition of human DJM-1 cell growth in a cell viability assay.

DSH1 = assay type: functional, cell-based, Homo sapiens; settings: Homo sapiens, DSH1;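 further: growth inhibition of human DSH1 cells, measured with a cell viability readout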
Description: SANGER: Inhibition of human DSH1 cell growth in a cell viability assay.

Detroit 562 = assay type: functional, cell-based, Homo sapiens; settings: Homo sapiens, Detroit 562;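 further: growth inhibition of human Detroit 562 cells, read out by a cell viability assay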
EFO-21 = assay type: functional, cell-based, Homo sapiens; settings: Homo sapiens, EFO-21;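 further: growth inhibition of EFO-21 cells measured with a viability assay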
Description: SANGER: Inhibition of human EFO-21 cell growth in a cell viability assay.

EW-1 = assay type: functional, cell-based, Homo sapiens; settings: Homo sapiens, EW-1;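 further: growth inhibition of the human EW-1 cell line, read out by a cell viability assay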
Description: SANGER: Inhibition of human EW-1 cell growth in a cell viability assay.

EOL1 = assay type: functional, cell-based; settings: Homo sapiens;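 further: growth inhibition of EoL-1 cells, read out by a cell viability assay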
Description: SANGER: Inhibition of human EoL-1-cell cell growth in a cell viability assay.

FTC-133 = assay type: functional, cell-based, Homo sapiens; settings: Homo sapiens, FTC-133
G-401 = assay type: functional, cell-based, Homo sapiens; settings: Homo sapiens, G-401
Description: SANGER: Inhibition of human G-401 cell growth in a cell viability assay.

GMS-10 = assay type: functional, cell-based, Homo sapiens; settings: Homo sapiens, GMS-10;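 further: growth inhibition of GMS-10 cells, read out as cell viability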
Description: SANGER: Inhibition of human GMS-10 cell growth in a cell viability assay.

H4 = assay type: functional, cell-based; settings: Homo sapiens
Description: SANGER: Inhibition of human H4 cell growth in a cell viability assay.

HAL-01 = assay type: functional, cell-based; settings: Homo sapiens;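 further: growth inhibition of human HAL-01 cells, read out with a cell viability assay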
Description: SANGER: Inhibition of human HAL-01 cell growth in a cell viability assay.

HCC 2998 = assay type: functional, cell-based, Homo sapiens; settings: Homo sapiens, HCC 2998;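 further: growth inhibition of human HCC2998 cells, measured with a cell viability read-out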
Description: SANGER: Inhibition of human HCC2998 cell growth in a cell viability assay.

HCC38 = assay type: functional, cell-based, Homo sapiens; settings: Homo sapiens, HCC38;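 further: cell viability assay on the human HCC38 cell line, with IC50 marking the concentration that inhibits cell growth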
Description: SANGER: Inhibition of human HCC38 cell growth in a cell viability assay.

HDLM-2 = assay type: functional, cell-based; settings: Homo sapiens;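 further: cell viability assay measuring suppression of HDLM-2 proliferation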
Description: SANGER: Inhibition of human HDLM-2 cell growth in a cell viability assay.

HOP-92 = assay type: functional, cell-based, Homo sapiens; settings: Homo sapiens, HOP-92;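 further: cell viability readout, with IC50 reflecting inhibition of HOP-92 cell growth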
Description: SANGER: Inhibition of human HOP-92 cell growth in a cell viability assay.

HT-29 = assay type: functional, cell-based, Homo sapiens; settings: Homo sapiens, HT-29;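 further: growth inhibition of human HT-29 cells, read out by a cell viability assay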
Description: SANGER: Inhibition of human HT-29 cell growth in a cell viability assay.

HTC-C3 = assay type: functional, cell-based, Homo sapiens; settings: Homo sapiens, HTC-C3;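 further: inhibition of cell growth, read out with a cell viability assay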
Description: SANGER: Inhibition of human HTC-C3 cell growth in a cell viability assay.

HuP-T4 = assay type: functional, cell-based, Homo sapiens; settings: Homo sapiens, HuP-T4;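 further: cell viability assay measuring how much HuP-T4 cell growth is inhibited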
Description: SANGER: Inhibition of human HuP-T4 cell growth in a cell viability assay.

IST-SL1 = assay type: functional, cell-based, Homo sapiens; settings: Homo sapiens, IST-SL1;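 further: growth inhibition of human IST-SL1 cells, read out with a cell viability assay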
Description: SANGER: Inhibition of human IST-SL1 cell growth in a cell viability assay.

KURAMOCHI = assay type: functional, cell-based; settings: Homo sapiens;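 further: growth inhibition of KURAMOCHI cells, read out with a cell viability assay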
Description: SANGER: Inhibition of human KURAMOCHI cell growth in a cell viability assay.

KY821 = assay type: functional, cell-based; settings: Homo sapiens;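 further: growth inhibition of human KY821 cells, read out by a cell viability assay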
LCLC-103H cell line = assay type: functional, cell-based, Homo sapiens; settings: Homo sapiens, LCLC-103H
Description: SANGER: Inhibition of human LCLC-103H cell growth in a cell viability assay.

LN-405 = assay type: functional, cell-based, Homo sapiens; settings: Homo sapiens, LN-405
Description: SANGER: Inhibition of human LN-405 cell growth in a cell viability assay.

MDA-MB-361 = assay type: functional, cell-based, Homo sapiens; settings: Homo sapiens, MDA-MB-361
ME-180 = assay type: functional, cell-based; settings: Homo sapiens;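 further: cell viability assay measuring growth inhibition of ME-180 cells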
Description: SANGER: Inhibition of human ME-180 cell growth in a cell viability assay.

NB69 = assay type: functional, cell-based, Homo sapiens; settings: Homo sapiens, NB69;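 further: growth inhibition of NB69 cells, determined by a cell viability assay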
Description: SANGER: Inhibition of human NB69 cell growth in a cell viability assay.

NCI-H1395 = assay type: functional, cell-based, Homo sapiens; settings: Homo sapiens, NCI-H1395;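 further: cell viability assay read-out quantifying reduced proliferation of human NCI-H1395 cells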
Description: SANGER: Inhibition of human NCI-H1395 cell growth in a cell viability assay.

NCI-H2122 = assay type: functional, cell-based, Homo sapiens; settings: Homo sapiens, NCI-H2122;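 further: growth inhibition of the cells, read out with a cell viability assay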
Description: SANGER: Inhibition of human NCI-H2122 cell growth in a cell viability assay.

NCI-H510A = assay type: functional, cell-based; settings: Homo sapiens;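 further: growth inhibition of NCI-H510A cells, read out with a cell viability assay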
NCI-H650 = assay type: functional, cell-based, Homo sapiens; settings: Homo sapiens, NCI-H650;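 further: growth inhibition of NCI-H650 cells, read out by a viability assay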
Description: SANGER: Inhibition of human NCI-H650 cell growth in a cell viability assay.

SNU1 = assay type: functional, cell-based; settings: Homo sapiens;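 further: growth inhibition of human NCI-SNU-1 cells, measured with a cell viability assay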
Description: SANGER: Inhibition of human NCI-SNU-1 cell growth in a cell viability assay.

NEC8 = assay type: functional, cell-based, Homo sapiens; settings: Homo sapiens, NEC8;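 further: growth inhibition of human NEC8 cells, read out by a cell viability assay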
Description: SANGER: Inhibition of human NEC8 cell growth in a cell viability assay.

NKM-1 = assay type: functional, cell-based; settings: Homo sapiens;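 further: growth inhibition of NKM-1 cells, read out with a cell viability assay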
OMC-1 = assay type: functional, cell-based, Homo sapiens; settings: Homo sapiens, OMC-1;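 further: growth inhibition of the OMC-1 cell line, measured by a cell viability assay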
Description: SANGER: Inhibition of human OMC-1 cell growth in a cell viability assay.

OS-RC-2 = assay type: functional, cell-based, Homo sapiens; settings: Homo sapiens, OS-RC-2;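 further: growth inhibition of human OS-RC-2 cells, measured by a cell viability assay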
Description: SANGER: Inhibition of human OS-RC-2 cell growth in a cell viability assay.

OVCAR-8 = assay type: functional, cell-based, Homo sapiens; settings: Homo sapiens, OVCAR-8;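 further: growth inhibition of human OVCAR-8 cells, read out by a cell viability assay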
Description: SANGER: Inhibition of human OVCAR-8 cell growth in a cell viability assay.

QIMR-WIL = assay type: functional, cell-based; settings: Homo sapiens;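 further: growth inhibition of QIMR-WIL cells, read out with a cell viability assay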
Description: SANGER: Inhibition of human QIMR-WIL cell growth in a cell viability assay.

RMG-I = assay type: functional, cell-based, Homo sapiens; settings: Homo sapiens, RMG-I;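 further: growth inhibition of human RMG-I cells, read out with a cell viability assay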
Description: SANGER: Inhibition of human RMG-I cell growth in a cell viability assay.

SK-N-AS = assay type: functional, cell-based, Homo sapiens; settings: Homo sapiens, SK-N-AS;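 further: growth inhibition of human SK-N-AS cells, measured with a cell viability assay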
Description: SANGER: Inhibition of human SK-N-AS cell growth in a cell viability assay.

SK-N-FI = assay type: functional, cell-based, Homo sapiens; settings: Homo sapiens, SK-N-FI;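 further: cell viability assay measuring growth inhibition of human SK-N-FI cells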
Description: SANGER: Inhibition of human SK-N-FI cell growth in a cell viability assay.

BV-173 = assay type: functional, cell-based; settings: Homo sapiens
Description: SANGER: Inhibition of human BV-173 cell growth in a cell viability assay.

TE-5 = assay type: functional, cell-based, Homo sapiens; settings: Homo sapiens, TE-5;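 further: inhibition of cell growth, read out by a cell viability assay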
Description: SANGER: Inhibition of human TE-5 cell growth in a cell viability assay.

no-11 = assay type: functional, cell-based, Homo sapiens; settings: Homo sapiens;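 further: growth inhibition of human NO-11 cells, read out with a cell viability assay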
Description: SANGER: Inhibition of human no-11 cell growth in a cell viability assay.

CCRF-CEM = assay type: functional, cell-based; settings: Homo sapiens;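 further: inhibition of CCRF-CEM cell growth, measured by a cell viability assay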
Description: SANGER: Inhibition of human CCRF-CEM cell growth in a cell viability assay.

CGTH-W-1 = assay type: functional, cell-based, Homo sapiens; settings: Homo sapiens, CGTH-W-1;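 further: growth inhibition of human CGTH-W-1 cells measured by cell viability assay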
Description: SANGER: Inhibition of human CGTH-W-1 cell growth in a cell viability assay.

COLO-679 = assay type: functional, cell-based, Homo sapiens; settings: Homo sapiens, COLO-679
Description: SANGER: Inhibition of human COLO-679 cell growth in a cell viability assay.

COLO-680N = assay type: functional, cell-based, Homo sapiens; settings: Homo sapiens, COLO-680N;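 further: cell viability assay used to measure inhibition of COLO-680N cell growth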
Description: SANGER: Inhibition of human COLO-680N cell growth in a cell viability assay.

COLO-684 = assay type: functional, cell-based; settings: Homo sapiens
Description: SANGER: Inhibition of human COLO-684 cell growth in a cell viability assay.

CC(=O)O[C@@]12CO[C@@H]1C[C@H](O)[C@@]1(C)C(=O)[C@H](O)C3=C(C)[C@@H](OC(=O)[C@H](O)[C@@H](NC(=O)OC(C)(C)C)c4ccccc4)C[C@@](O)([C@@H](OC(=O)c4ccccc4)[C@H]21)C3(C)C [DOCETAXEL]
IC50 (COLO-741): 8.2 nM
IC50 (COLO-800): 0.388 nM
IC50 (CTV-1): 3.37 nM
IC50 (ChaGo-K-1): 9.88 nM
IC50 (DJM-1): > 10 nM
IC50 (DSH1): > 10 nM
IC50 (Detroit 562): 0.902 nM
IC50 (EFO-21): > 10 nM
IC50 (EW-1): 2.98 nM
IC50 (EOL1): 1.73 nM
IC50 (FTC-133): 0.489 nM
IC50 (G-401): 1.27 nM
IC50 (GMS-10): 0.941 nM
IC50 (H4): 1.96 nM
IC50 (HAL-01): > 10 nM
IC50 (HCC 2998): 4.08 nM
IC50 (HCC38): 6 nM
IC50 (HDLM-2): > 10 nM
IC50 (HOP-92): 7.3 nM
IC50 (HT-29): 2.8 nM
IC50 (HTC-C3): 2.85 nM
IC50 (HuP-T4): 6.79 nM
IC50 (IST-SL1): 3.12 nM
IC50 (KURAMOCHI): > 10 nM
IC50 (KY821): 5.51 nM
IC50 (LCLC-103H cell line): 2.93 nM
IC50 (LN-405): 4.82 nM
IC50 (MDA-MB-361): 2.81 nM
IC50 (ME-180): 1.69 nM
IC50 (NB69): 6.29 nM
IC50 (NCI-H1395): 3.96 nM
IC50 (NCI-H2122): 1.84 nM
IC50 (NCI-H510A): 0.336 nM
IC50 (NCI-H650): 2.25 nM
IC50 (SNU1): 1.97 nM
IC50 (NEC8): 0.561 nM
IC50 (NKM-1): > 10 nM
IC50 (OMC-1): 9.06 nM
IC50 (OS-RC-2): > 10 nM
IC50 (OVCAR-8): 2.12 nM
IC50 (QIMR-WIL): 4.38 nM
IC50 (RMG-I): > 10 nM
IC50 (SK-N-AS): 5.35 nM
IC50 (SK-N-FI): > 10 nM
IC50 (BV-173): 5.3 nM
IC50 (TE-5): 1.06 nM
IC50 (no-11): > 10 nM
IC50 (CCRF-CEM): > 10 nM
IC50 (CGTH-W-1): 0.542 nM
IC50 (COLO-679): > 10 nM
IC50 (COLO-680N): 5.08 nM
IC50 (COLO-684): > 10 nM

CN(C)C/C=C/C(=O)Nc1cc2c(Nc3ccc(F)c(Cl)c3)ncnc2cc1O[C@H]1CCOC1 [AFATINIB]
IC50 (COLO-741): > 500 nM
IC50 (COLO-800): > 500 nM
IC50 (CTV-1): > 500 nM
IC50 (ChaGo-K-1): > 500 nM
IC50 (DJM-1): > 500 nM
IC50 (DSH1): 33.1 nM
IC50 (Detroit 562): > 500 nM
IC50 (EFO-21): > 500 nM
IC50 (EW-1): > 500 nM
IC50 (EOL1): 269 nM
IC50 (FTC-133): > 500 nM
IC50 (G-401): > 500 nM
IC50 (GMS-10): > 500 nM
IC50 (H4): > 500 nM
IC50 (HAL-01): > 500 nM
IC50 (HCC 2998): > 500 nM
IC50 (HCC38): > 500 nM
IC50 (HDLM-2): 5.72 nM
IC50 (HOP-92): > 500 nM
IC50 (HT-29): > 500 nM
IC50 (HTC-C3): > 500 nM
IC50 (HuP-T4): > 500 nM
IC50 (IST-SL1): > 500 nM
IC50 (KURAMOCHI): > 500 nM
IC50 (KY821): 20.6 nM
IC50 (LCLC-103H cell line): > 500 nM
IC50 (LN-405): > 500 nM
IC50 (MDA-MB-361): > 500 nM
IC50 (ME-180): > 500 nM
IC50 (NB69): > 500 nM
IC50 (NCI-H1395): > 500 nM
IC50 (NCI-H2122): > 500 nM
IC50 (NCI-H510A): > 500 nM
IC50 (NCI-H650): > 500 nM
IC50 (SNU1): > 500 nM
IC50 (NEC8): > 500 nM
IC50 (NKM-1): > 500 nM
IC50 (OMC-1): > 500 nM
IC50 (OS-RC-2): > 500 nM
IC50 (OVCAR-8): > 500 nM
IC50 (QIMR-WIL): > 500 nM
IC50 (RMG-I): > 500 nM
IC50 (SK-N-AS): > 500 nM
IC50 (SK-N-FI): > 500 nM
IC50 (BV-173): 176 nM
IC50 (TE-5): > 500 nM
IC50 (no-11): > 500 nM
IC50 (CCRF-CEM): > 500 nM
IC50 (CGTH-W-1): > 500 nM
IC50 (COLO-679): > 500 nM
IC50 (COLO-680N): > 500 nM
IC50 (COLO-684): > 500 nM
